# Results from article PMC5429698, “Biochemical analysis of leishmanial and human GDP-Mannose Pyrophosphorylases and selection of inhibitors as new leads” (Scientific Reports, 2017).
# “And” between values parts separate entries of the source, which are not always exact repeats. Identical values can stand only once. Like-named read-outs stand apart in the source and are kept apart here.
# Experiments:
# T. brucei GDP-MP = test system: T. brucei GDP-MP; parameters: method as in PMID 19919534; conditions: cited from earlier work
# LmGDP-MP = LmGDP-MP (Leishmania mexicana, UniProt E9AW11); test: biochemical; assay type: biochemical; conditions: for Km: read-out: Km (µM) ± SD of LmGDP-MP
# Description: (§1) GDP-MP catalyzes the following reaction: Man‐1‐P+GTP→GDP−Mannose+Pyrophosphate The reaction media were buffered at pH optima and contained optimal concentrations of Man-1-P, GTP, GDP-MP and Mg^2+ determined for each purified GDP-MP (Fig. 2d), supplemented with DTT (1 mM). Inorganic pyrophosphatase, which hydrolyses the inorganic pyrophosphates generated by the GDP-MPs in inorganic phosphates, was added at 0.1 U/ml (Sigma-Aldrich). Inorganic pyrophosphatase was added in excess to the reaction medium in order to minimize the probability that the putative inhibitors of GDP-MPs interfere with this enzyme. The reaction was initiated by the addition of GDP-MP, and was stopped after adding 100 µl of revelation buffer containing malachite green (0.03% w/v), ammonium molybdate (0.2% w/v) and Triton X-100 (0.05% v/v) in HCl (0.7 M) for 5 min at the optimal temperature. The quantity of inorganic phosphate generated, representing GDP-MP activity, was determined by measuring OD650nm (Lab systems Multiskan MS). The molar extinction coefficient ε of the end product detected was determined by measuring OD650nm with a range of inorganic phosphate concentrations diluted in the revelation buffer and was calculated at 27207 M^−1 cm^−1 (Supplementary Fig. S2). The kinetic constants K m, V m and k cat were determined by non linear regression using GraphPad Prism 6.0.
# (§2) Enzyme activity was measured as described above in the presence of 100 µM of compounds and the percentage of inhibition was calculated in reference to untreated enzyme. As a control, compounds were evaluated in parallel in the same conditions on inorganic pyrophosphatase alone in order to discard false-positives. […] Furthermore, no effect was observed on the activity of the three purified GDP-MPs with 1% DMSO, corresponding to the maximal solvent concentration used at 100 µM of compound. Compounds presenting a minimum of 50% inhibition on a leishmanial GDP-MP were subsequently selected to determine their type of inhibition and their K i values. Inhibition data were fitted to competitive, non-competitive or uncompetitive models of enzyme inhibition by non linear least squares regression analysis using GraphPad Prism 6.0.
# hGDP-MP = molecular target: T1, hGDP-MP (Homo sapiens, UniProt Q9Y5P6); test: GDP-MP enzymatic assay (malachite green) on purified hGDP-MP; assay type: biochemical; conditions: NTP at 100 µM
# T1 construct: made in house; host or cells: E. coli BL21(DE3), co-transformed with chaperone plasmid pG-KJE3
# Description: as §1, with “The reaction was initiated by the addition of GDP-MP, and was stopped after adding 100 µl of revelation buffer containing malachite green (0.03% w/v), ammonium molybdate (0.2% w/v) and Triton X-100 (0.05% v/v) in HCl (0.7 M) for 5 min at the optimal temperature.” left out
# Enzyme activity was measured as described above in the presence of 100 µM of compounds and the percentage of inhibition was calculated in reference to untreated enzyme. […]
# [1] = test system: L. donovani axenic amastigotes; test: Antileishmanial evaluation on axenic amastigotes (resazurin); assay type: cell-based; conditions: Leishmania donovani, 72 h, 72 h treatment, 37 °C; read-out: IC50 (µM) ± SD L. donovani axenic amastigotes
# Description: (§3) The evaluations of activity on axenic and intramacrophage amastigotes were adapted from the protocols previously described. Briefly, for the evaluation on axenic amastigotes, two fold serial dilutions of the compounds from a maximal concentration of 100 µM were performed in 100 µl of complete medium (see above) in 96-well microplates. Axenic amastigotes were then added to each well at a density of 10^6/ml in a 200 µl final volume. After 72 h of treatment at 37 °C for L. donovani or at 32 °C for L. mexicana with 5% CO2, 20 µl of resazurin (450 µM) was added to each well and further incubated in the dark for 24 h at 37 °C for L. donovani or at 32 °C for L. mexicana with 5% CO2. In living cells, resazurin is reduced in resorufin and this conversion is monitored by measuring OD570nm (resorufin) and OD600nm (resazurin; Lab systems Multiskan MS). The activity of the compounds was expressed as IC50. Miltefosine was used as the reference drug.
# [2] = test system: L. mexicana axenic amastigotes; test: as above; assay type: cell-based; conditions: Leishmania mexicana, 72 h
# Description: as §3
# [3] = test system: L. donovani intramacrophage amastigotes in infected RAW.264.7 macrophages; test: Antileishmanial evaluation on intramacrophage amastigotes, RAW264.7 host; assay type: cell-based; conditions: for IC50: Leishmania donovani, RAW264.7, 48 h, 48 h treatment, read-out: IC50 (µM) ± SD L. donovani infected RAW.264.7 macrophages; for Selectivity index (CC50/IC50) L. donovani RAW264.7 macrophages: CC50 RAW264.7 / IC50 infected RAW264.7
# Description: (§4) Concerning the evaluation on intramacrophage amastigotes, RAW 264.7 macrophages (from ATCC) and bone marrow derived macrophages (BMDM) were plated in 96-well microplates at a density of 2 × 10^4 cells per well and incubated for 24 h at 37 °C with 5% CO2 for RAW264.7 cells or at 37 °C with 7% CO2 for BMDM. Axenic amastigotes were differenciated as described above, centrifuged at 2,000 g for 10 min, resuspended in DMEM complete medium, and added to each well to reach a 16:1 parasite to macrophage ratio. After 24 h of infection at 37 °C with 5% CO2 for RAW264.7 cells or at 37 °C with 7% CO2 for BMDM, extracellular parasites were removed, and DMEM complete medium (100 µl) containing two fold serial dilutions of the compounds from a maximal concentration of 100 µM was added to each well. After 48 h of treatment, the medium was removed and replaced by DirectPCR Lysis Reagent (100 µl; Euromedex) before 3 freeze-thaw cycles at room temperature, addition of 50 µg/ml proteinase K, and a final incubation at 55 °C overnight to allow cell lysis. 10 µl of each cell extract was then added to 40 µl of DirectPCR Lysis reagent containing Sybr Green I (0.05%; Invitrogen). DNA fluorescence was monitored using Mastercycler® realplex (Eppendorf). The activity of the compounds was expressed as IC50. Miltefosine was used as the reference drug.
# [4] = test system: L. donovani intramacrophage amastigotes in infected BMDM; test: Antileishmanial evaluation on intramacrophage amastigotes, BMDM host; assay type: cell-based; conditions: for Selectivity index (CC50/IC50) L. donovani BMDM: CC50 BMDM / IC50 infected BMDM; for IC50: Leishmania donovani, BMDM, 48 h treatment, read-out: IC50 (µM) ± SD L. donovani infected BMDM
# Description: as §4
# [5] = test system: L. mexicana intramacrophage amastigotes in infected BMDM; test: microbe, parasite or virus in culture; assay type: cell-based; conditions: for IC50: Leishmania mexicana, BMDM, 48 h, 48 h treatment, read-out: IC50 (µM) ± SD L. mexicana infected BMDM
# Description: as §4
# [6] = test system: L. mexicana intramacrophage amastigotes in infected RAW.264.7 macrophages; test: microbe, parasite or virus in culture; assay type: cell-based; conditions: for IC50: 48 h treatment, read-out: IC50 (µM) ± SD L. mexicana infected RAW.264.7 macrophages
# Description: as §4
# Cytotoxicity (resazurin) [7] = assay type: cell-based; conditions: mouse, RAW264.7 macrophages; 48 h incubation; read-out: Cytotoxicity CC50 (µM) ± SD RAW264.7 macrophages
# Description: (§5) Cells were plated in 96-well microplates at a density of 2 × 10^4 cells per well. After an incubation of 24 h at 37 °C with 5% CO2 for RAW264.7 cells or at 37 °C with 7% CO2 for BMDM, the medium was removed in each well, and 100 µl of DMEM complete medium containing two fold serial dilutions of the compounds was added to each well. […] Cell viability was then monitored as described above.
# Cytotoxicity (resazurin) [8] = assay type: cell-based, Balb/c mice; conditions: Balb/c, mouse, bone marrow derived macrophages (BMDM); 48 h incubation; read-out: Cytotoxicity CC50 (µM) ± SD BMDM
# Description: as §5
# [9] = test system: inorganic pyrophosphatase; test: Control for false positives on inorganic pyrophosphatase alone; assay type: biochemical; conditions: compound at 100 µM, same conditions as the GDP-MP assay
# Description: as §2
# [10] = test system: leishmanial GDP-MP (LdGDP-MP and/or LmGDP-MP); test: Screen of the 100 compound library at 100 µM on purified leishmanial GDP-MPs; assay type: biochemical, Leishmania; conditions: compound at 100 µM
# Description: as §1, §2
# [11] = Leishmania mexicana, RAW264.7, 48 h
# [12] = 72 h treatment, 32 °C, read-out: IC50 (µM) ± SD L. mexicana axenic amastigotes
# [13] = CC50 RAW264.7 / IC50 infected RAW264.7
# Sequence of LmGDP-MP (E9AW11 entry or part of it): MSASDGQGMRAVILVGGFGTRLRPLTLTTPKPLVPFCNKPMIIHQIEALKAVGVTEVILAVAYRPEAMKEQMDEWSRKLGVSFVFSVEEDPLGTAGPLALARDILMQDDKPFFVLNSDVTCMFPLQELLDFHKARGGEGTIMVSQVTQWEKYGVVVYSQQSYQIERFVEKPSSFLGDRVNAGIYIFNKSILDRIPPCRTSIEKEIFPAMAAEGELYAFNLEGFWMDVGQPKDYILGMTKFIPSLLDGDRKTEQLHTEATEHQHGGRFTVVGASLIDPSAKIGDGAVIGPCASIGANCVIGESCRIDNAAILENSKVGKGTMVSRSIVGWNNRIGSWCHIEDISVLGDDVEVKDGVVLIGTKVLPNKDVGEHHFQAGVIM
# T1 sequence (Q9Y5P6 whole entry): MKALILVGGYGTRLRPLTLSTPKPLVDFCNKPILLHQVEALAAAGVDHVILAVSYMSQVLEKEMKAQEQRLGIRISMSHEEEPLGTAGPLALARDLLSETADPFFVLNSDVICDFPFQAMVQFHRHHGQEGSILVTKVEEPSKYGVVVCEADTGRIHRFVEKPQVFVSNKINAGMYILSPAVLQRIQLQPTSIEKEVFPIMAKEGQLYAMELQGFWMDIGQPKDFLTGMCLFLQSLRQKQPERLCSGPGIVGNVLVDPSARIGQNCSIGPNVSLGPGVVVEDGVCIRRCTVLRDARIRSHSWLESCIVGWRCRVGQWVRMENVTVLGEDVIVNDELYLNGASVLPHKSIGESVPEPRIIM
Structure (SMILES),IC50 [1],IC50 [3],Selectivity index (CC50/IC50) L. donovani BMDM [4],IC50 [4],IC50 [5],"IC50 [6, 11]",CC50 at 48 h (Cytotoxicity (resazurin) [7]),CC50 at 48 h (Cytotoxicity (resazurin) [8]),Ki (LmGDP-MP),"IC50 [2, 12]",Selectivity index (CC50/IC50) L. mexicana BMDM ([5]; CC50 BMDM / IC50 infected BMDM),"Selectivity index (CC50/IC50) L. mexicana RAW264.7 macrophages [6, 13]",inhibition of inorganic pyrophosphatase [9],enzyme inhibition on a leishmanial GDP-MP [10],also measured
Nc1ncnc2c1ncn2[C@@H]1O[C@H](COP(=O)(O)OP(=O)(O)OP(=O)(O)O)[C@@H](O)[C@H]1O [ATP],–,–,–,–,–,–,–,–,–,–,–,–,–,–,Km (T. brucei GDP-MP): 290 µM
Nc1nc2c(ncn2[C@@H]2O[C@H](COP(=O)(O)OP(=O)(O)OP(=O)(O)O)[C@@H](O)[C@H]2O)c(=O)[nH]1 [GTP],–,–,–,–,–,–,–,–,–,–,–,–,–,–,Km (LmGDP-MP; other substrate held constant at 80 µM): 7.67 ± 2.28 µM
O=c1[nH]cnc2c1ncn2[C@@H]1O[C@H](COP(=O)(O)OP(=O)(O)OP(=O)(O)O)[C@@H](O)[C@H]1O [ITP],–,–,–,–,–,–,–,–,–,–,–,–,–,–,LmGDP-MP activity with substrate analogue compared to GTP (LmGDP-MP; NTP at 100 µM): 22–24%; hGDP-MP activity with substrate analogue compared to GTP (hGDP-MP): 22–24% and 24%
"O=P(O)(O)OC1O[C@H](CO)[C@@H](O)[C@H](O)[C@@H]1O (stereo partly shown) [Man-1-P, mannose-1-phosphate]",–,–,–,–,–,–,–,–,–,–,–,–,–,–,Km (LmGDP-MP): 11.6 ± 1.76 µM
"CCCCCCCCCCCCCCCCOP(=O)([O-])OCC[N+](C)(C)C [Miltefosine, reference compound]",2.08 ± 0.24 µM,1.83 ± 0.22 µM,>30.1,0.83 ± 0.12 µM,51.4 ± 5.34 µM,52.6 ± 4.98 µM,> 25 µM,> 25 µM,–,–,–,–,–,–,"IC50 ([2]; read-out: IC50 (µM) ± SD L. mexicana axenic amastigotes, 72 h treatment, 32 °C): 23.7 ± 2.81 µM; Selectivity index (CC50/IC50) L. mexicana BMDM [5]: >0.5; Selectivity index (CC50/IC50) L. mexicana RAW264.7 macrophages [6]: >0.5"
O=C(NCc1ccccc1)c1ccc2nc(-c3ccccc3)c(-c3ccccc3)nc2c1 [compound 46],> 100 µM,> 100 µM,1.0,12.5 ± 0.93 µM,15.7 ± 3.48 µM,11.7 ± 1.13 µM,> 100 µM,13.1 ± 1.67 µM,25.6 ± 3.46 µM,7.69 ± 0.56 µM,0.8,>8.5,< 5%,above 50%,–
Nc1nc2c(ncn2C2OC(Cn3cc(-c4ccc(-c5ccccc5)cc4)nn3)C(O)C2O)c(=O)[nH]1 (stereo not shown) [compound 83],> 100 µM,51.9 ± 7.49 µM,0.9,27.1 ± 2.04 µM,25.9 ± 5.37 µM,45.4 ± 6.21 µM,> 100 µM,23.8 ± 1.98 µM,25.4 ± 4.23 µM,30.6 ± 3.29 µM,0.9,>2.2,< 5%,above 50%,Selectivity index (CC50/IC50) L. donovani RAW264.7 macrophages [3]: >1.9
Clc1ccc2nc(COCCn3cc(-c4ccc(-c5ccccc5)cc4)nn3)ccc2c1 [compound 92],> 100 µM,41.6 ± 14 µM,0.9,82.5 ± 7.61 µM,79.3 ± 9.76 µM,< 10 µM,> 100 µM,77.5 ± 5.34 µM,16 ± 3.51 µM,43.1 ± 3.42 µM,1.0,>12.1,< 5%,above 50%,Selectivity index (CC50/IC50) L. donovani RAW264.7 macrophages [3]: >2.4; IC50 [6]: 8.25 ± 1.07 µM
